Results on five compounds are retold here after patent publication US8883963B2 (Cadila Healthcare Limited, priority 2007, dated 2014).

Non-standard residues stand in square brackets, D forms with d. Residues, ends and D or L forms follow the SMILES beside them. ξ: configuration not given here. Leu(5,5,5,5',5',5'-F6) = N[C@@H](CC(C(F)(F)F)C(F)(F)F)C(=O)O; ξBip(2'-Et-4'-OMe) = CCc1cc(OC)ccc1-c1ccc(CC(N)C(=O)O)cc1; ξbishPhe(2-F) = NC(CCCc1ccccc1F)C(=O)O; ξαMePhe(2-F) = CC(N)(Cc1ccccc1F)C(=O)O; Aib = CC(C)(N)C(=O)O Some results are limits rather than exact numbers.

A short description of series [1]: Stability in liver microsomes. Format: in vitro ADME. Particulars: 2 μM peptidomimetic, human liver microsomes, 37° C.; for half-life at 2 μM: pH 7.8, read-out: half-life (t1/2) when incubated with liver microsomes. As for the experimental part: (§1) Reactions were terminated by the addition of TFA/H2O (15 mL, 10% (v/v)). […] The column was equilibrated with TFA/H20, at a flow rate of 1 mL/min.
(In general: Microsomes from liver hold many membrane-bound enzymes, among them those of drug oxidation.)

The nature of series [2]: Stability in simulated gastric fluid. It counts as in vitro ADME. Particulars: 2 μM peptidomimetic, simulated gastric fluid pH 1.5, 37° C.; for half-life at 2 μM: read-out: half-life (t1/2) when incubated with simulated gastric fluid. On the procedure:
as §1

Series [3] has as its target T1, Human GLP-1 receptor (Homo sapiens, UniProt P43220).
T1 construct: The full-length cDNA was cloned in pcDNA3.1(+); expressed in transfected cells
Kind of series: In vitro Human GLP-1 R agonist activity (cyclic AMP determination) in CHO/human GLP1R cells. Format: cell-based. On the procedure:
The novel peptidomimetics were screened for Human GLP-1 receptor (HGLP-1 R) agonist activity (in vitro), using the cAMP cell-based assay, in stably transfected CHO/human GLP1R cells. […] CHO cells were grown in Ham's F12 medium containing L-Glutamine (2 mM), HEPES (25 mM), NaHCO3 (1.1 g/L) and supplemented with NewBorn Calf Serum (NBCS; 10%), Penicillin (50 U/ml (v/v)) and Streptomycin (50 ug/ml (v/v)). Cells were split every 3 days 1:8.
The cDNA encoding the human GLP-1 receptor was isolated by RT-PCR according to standard protocol. The full-length cDNA was cloned in pcDNA3.1(+). […] Clones expressing the receptor were generated by G418 (800 μg/ml active, Sigma) selection. The stable clones were thereafter maintained at 500 ug/ml (G418). The selected clone was used between passages 9-25 for cAMP assays.
The trypsin was inactivated using Ham's F12 medium containing 10% NBCS and the cells were suspended in 2 ml of complete medium. […] The medium was aspirated off from the 12 well plate and the cells were washed once using Ham's F12 (plain). […] The cells were incubated with the test compounds for 30 min in humidified atmosphere and 37° C. After the incubation, the medium was removed and cells were washed once with plain Ham's F12. Subsequently, the cells were lysed by adding 500 ul of ice cold 0.1 N HCl to each well and shaking for 30 minutes at 200 rpm. The cells were then scrapped, the lysate was collected in micro centrifuge tubes and centrifuged at 12000 rpm for 10 min to remove the debris. 300 ul of supernatant from each micro-centrifuge tube was then removed into a glass tube and dried under N2 for 30 min, for cAMP estimation. The total cAMP was estimated from the sample according to the manufacturer's protocol using Cyclic AMP immunoassay kit (R&D systems, Minneapolis. MN). The remaining supernatant is used to determine the protein concentration using micro BCA (Sigma). Data is calculated as percent of control (Vehicle: water) and expressed as Mean±SD.

A short description of series [4]: Stability in simulated intestinal fluid. It counts as in vitro ADME. As to conditions: 2 μM peptidomimetic, simulated intestinal fluid pH 7.5, 37° C.; for half-life at 2 μM: read-out: half-life (t1/2) when incubated with simulated intestinal fluid. On the procedure:
as §1

Series [5] can be described thus: Stability in human plasma. Format: in vitro ADME. Particulars: 2 μM peptidomimetic, pooled human plasma, 37° C.; for half-life at 2 μM: pH 7.8, read-out: half-life (t1/2) when incubated with human plasma. As for the experimental part: as §1
In series [6] the target is DPP IV (Homo sapiens, UniProt P27487). Kind of series: Stability against DPP IV enzyme. Format: in vitro ADME. Particulars: 37° C.; for % degradation of peptidomimetics in 24 h when incubated with DPP-IV enzyme: 2 μM peptidomimetic; for half-life at 2 μM: DPP IV enzyme, pH 7.8, 2 μM peptidomimetic, read-out: half-life (t1/2) when incubated with DPP-IV enzyme. As for the experimental part: as §1
DPP IV, sequence (P27487 whole entry, species assumed): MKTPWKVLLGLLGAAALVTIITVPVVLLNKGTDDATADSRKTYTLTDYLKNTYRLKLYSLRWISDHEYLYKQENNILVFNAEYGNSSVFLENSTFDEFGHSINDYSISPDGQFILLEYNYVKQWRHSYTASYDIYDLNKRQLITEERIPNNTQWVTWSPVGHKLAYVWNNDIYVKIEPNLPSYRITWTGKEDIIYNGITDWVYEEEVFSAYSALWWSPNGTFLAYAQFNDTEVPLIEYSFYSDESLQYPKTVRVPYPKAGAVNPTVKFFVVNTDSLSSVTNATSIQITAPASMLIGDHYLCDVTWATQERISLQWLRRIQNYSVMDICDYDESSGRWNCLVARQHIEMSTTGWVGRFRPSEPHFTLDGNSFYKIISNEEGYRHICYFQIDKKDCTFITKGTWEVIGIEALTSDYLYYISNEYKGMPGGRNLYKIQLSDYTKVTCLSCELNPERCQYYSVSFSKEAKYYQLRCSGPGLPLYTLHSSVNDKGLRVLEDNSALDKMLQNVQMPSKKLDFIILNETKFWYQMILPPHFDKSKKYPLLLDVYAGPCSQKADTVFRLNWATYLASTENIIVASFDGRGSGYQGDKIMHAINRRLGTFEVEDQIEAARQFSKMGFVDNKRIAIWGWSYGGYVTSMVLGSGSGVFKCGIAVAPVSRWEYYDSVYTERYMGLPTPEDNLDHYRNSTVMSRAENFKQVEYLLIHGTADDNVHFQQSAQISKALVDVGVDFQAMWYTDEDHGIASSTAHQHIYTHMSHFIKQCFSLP

Series [7] concerns the target T2, human glucagon receptor (Homo sapiens, UniProt P47871).
T2 construct: The full-length cDNA was cloned in pcDNA3.1 (Invitrogen); expressed in transfected cells
Kind of series: In vitro human glucagon antagonist activity (inhibition of cAMP production) in CHO/human glucagon R cells. Format: cell-based. Particulars: with saturated concentration of glucagon peptide. On the technique in general: Changes in cAMP serve as a functional read-out for many G protein-coupled receptors.

T1 sequence (P43220 24-463): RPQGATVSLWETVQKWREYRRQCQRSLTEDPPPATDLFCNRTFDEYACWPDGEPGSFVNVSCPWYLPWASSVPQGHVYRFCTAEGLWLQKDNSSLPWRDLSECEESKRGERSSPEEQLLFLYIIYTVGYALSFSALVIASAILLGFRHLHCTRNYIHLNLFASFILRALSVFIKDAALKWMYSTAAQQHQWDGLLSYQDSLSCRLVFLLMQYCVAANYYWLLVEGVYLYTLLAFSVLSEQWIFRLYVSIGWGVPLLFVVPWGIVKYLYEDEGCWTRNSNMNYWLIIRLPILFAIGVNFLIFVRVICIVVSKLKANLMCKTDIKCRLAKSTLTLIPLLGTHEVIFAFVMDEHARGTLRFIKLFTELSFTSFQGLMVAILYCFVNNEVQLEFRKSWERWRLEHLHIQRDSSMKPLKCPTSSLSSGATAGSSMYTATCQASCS
T2 sequence (P47871 26-477): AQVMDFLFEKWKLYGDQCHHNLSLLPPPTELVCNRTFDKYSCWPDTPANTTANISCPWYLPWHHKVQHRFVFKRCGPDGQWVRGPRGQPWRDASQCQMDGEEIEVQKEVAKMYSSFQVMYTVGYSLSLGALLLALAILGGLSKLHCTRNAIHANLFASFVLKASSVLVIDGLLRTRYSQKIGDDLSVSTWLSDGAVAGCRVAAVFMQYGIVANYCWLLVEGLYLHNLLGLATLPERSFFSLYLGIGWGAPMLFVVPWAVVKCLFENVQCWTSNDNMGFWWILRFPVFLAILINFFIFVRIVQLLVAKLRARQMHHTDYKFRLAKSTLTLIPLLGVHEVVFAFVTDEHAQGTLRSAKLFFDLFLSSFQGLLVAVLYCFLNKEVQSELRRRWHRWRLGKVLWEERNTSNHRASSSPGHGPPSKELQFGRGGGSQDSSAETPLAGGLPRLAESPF

Regarding `CCc1cc(OC)ccc1-c1ccc(CC(CNC(CCCc2ccccc2)C(N)=O)NC(=O)[C@H](CC(=O)O)NC(=O)[C@H](CO)NC(=O)[C@@H](NC(=O)C(C)(Cc2ccccc2F)NC(=O)[C@@H](NC(=O)CNC(=O)[C@H](CCC(N)=O)NC(=O)C(C)(C)NC(=O)[C@H](Cc2c[nH]cn2)NC(C)=O)[C@H](C)O)[C@H](C)O)cc1` (single isomer, unassigned) [compound 185], in series [1], the “% degradation of peptidomimetics in 24 h when incubated with liver microsomes” value (“% degradation … with liver microsomes” for short) is recorded as 84%. Also, the half-life at 2 μM was 2 h in series [1]; 4 h in series [2]; above 24 h in series [4]; above 24 h in series [5]; above 24 h in series [6]. Also, in series [2], the “% degradation of peptidomimetics in 24 h when incubated with simulated gastric fluid” value (“% degradation … with simulated gastric fluid” below) is listed as 55%. Further, the “Human GLP-1 R activity (cAMP release), % activity with respect to control” value in series [3] (1 nM test compound) is listed as 46 ± 0.022%; in series [3] (10 nM test compound), 85 ± 0.46%; in series [3] (100 nM test compound), 90 ± 0.41%; in series [3] (1 μM test compound), 99 ± 0.66%; in series [3] (10 μM test compound), 99 ± 0.03%. Also, the “% degradation of peptidomimetics in 24 h when incubated with simulated intestinal fluid” value (from here on “% degradation … with simulated intestinal fluid”) in series [4] was 00%. Further, in series [5], the “% degradation of peptidomimetics in 24 h when incubated with human plasma” value (from here on “% degradation … with human plasma”) is reported as 00%. In addition, in series [6], the “% degradation of peptidomimetics in 24 h when incubated with DPP-IV enzyme” value (“% degradation … with DPP-IV enzyme” below) came to 00%.
Take `CCc1cc(OC)ccc1-c1ccc(CC(CNC(CCCc2ccccc2)C(N)=O)NC[C@H](CC(=O)O)NC(=O)[C@H](CO)NC(=O)[C@@H](NC(=O)C(C)(Cc2ccccc2F)NC(=O)[C@@H](NC(=O)CNC(=O)[C@H](CCC(N)=O)NC(=O)C(C)(C)NC(=O)[C@H](Cc2c[nH]cn2)NC(=O)OC)[C@H](C)O)[C@H](C)O)cc1` (single isomer, unassigned) [compound 198]: the “% degradation … with liver microsomes” value in series [1] is reported as 82%. Further, the half-life at 2 μM in series [1] was 2 h; in series [2] it was 4 h; in series [4], above 24 h; in series [5] it was above 24 h; in series [6], above 24 h. The “% degradation … with simulated gastric fluid” value in series [2] is on record as 49%. In addition, the “Human GLP-1 R activity (cAMP release), % activity with respect to control” value in series [3] (1 nM test compound) was found to be 82 ± 0.22%; in series [3] (10 nM test compound) it was 87 ± 0.12%; in series [3] (100 nM test compound), 92 ± 0.14%; in series [3] (1 μM test compound), 99 ± 0.22%; in series [3] (10 μM test compound), 99 ± 0.26%. Also, the “% degradation … with simulated intestinal fluid” value in series [4] is recorded as 00%. For the same compound, in series [5], the “% degradation … with human plasma” value was found to be 00%. The “% degradation … with DPP-IV enzyme” value in series [6] is 00%.
Turning to `CCc1cc(OC)ccc1-c1ccc(CC(NC(=O)[C@H](CC(=O)O)NC(=O)[C@H](CO)NC(=O)[C@@H](NC(=O)[C@H](Cc2ccccc2)NC(=O)[C@@H](NC(=O)CNC(=O)[C@H](CCC(N)=O)NC(=O)[C@H](C)NC(=O)[C@@H](N)Cc2c[nH]cn2)[C@@H](C)O)[C@@H](C)O)C(=O)NC(CCCc2ccc(Cl)cc2C)C(N)=O)cc1` (single isomer, unassigned) [compound 16], in series [1], the “% degradation … with liver microsomes” value is 78%. Besides, the results for the half-life at 2 μM in series [1], in series [5] and in series [6] were 1 h, 8 h and 9 h, respectively. The “half-life (t1/2) when incubated with simulated gastric fluid” value in series [2] was “(8) h”. For the same compound, the “% degradation … with simulated gastric fluid” value in series [2] is 14%. Also, the “Human GLP-1 R activity (cAMP release), % activity with respect to control” value in series [3] (1 nM test compound) was found to be 99 ± 0.11%; in series [3] (10 nM test compound), 99 ± 0.13%; in series [3] (100 nM test compound) it was 99 ± 0.16%; in series [3] (1 μM test compound) it was 99 ± 0.06%; in series [3] (10 μM test compound) it was 99 ± 0.10%. In addition, the “half-life (t1/2) when incubated with simulated intestinal fluid” value in series [4] is reported as “(6) h”. In series [4], the “% degradation … with simulated intestinal fluid” value was 40%. The “% degradation … with human plasma” value in series [5] is 71%. In addition, the “% degradation … with DPP-IV enzyme” value in series [6] was 70%.
As for `CCc1cc(OC)ccc1-c1ccc(CC(NC(=S)[C@H](CC(=O)O)NC(=O)[C@H](CO)NC(=O)[C@@H](NC(=O)C(C)(Cc2ccccc2F)NC(=O)[C@@H](NC(=O)CNC(=O)C(CCC#N)NC(=O)C(C)(C)NC(=O)[C@@H](N)Cc2c[nH]cn2)[C@H](C)O)[C@H](C)O)C(=S)NC(CCCc2ccccc2F)C(N)=O)cc1` (single isomer, unassigned) [compound 180], in series [1], the “% degradation … with liver microsomes” value turned out to be 86%. Further, the half-life at 2 μM was 2 h in series [1]; 4 h in series [2]; above 24 h in series [4]; above 24 h in series [5]; above 24 h in series [6]. Also, the “% degradation … with simulated gastric fluid” value in series [2] is 50%. The “Human GLP-1 R activity (cAMP release), % activity with respect to control” value in series [3] (1 nM test compound) worked out at 40 ± 0.11%; in series [3] (10 nM test compound), 81 ± 0.09%; in series [3] (100 nM test compound) it was 89 ± 0.06%; in series [3] (1 μM test compound), 96 ± 0.14%; in series [3] (10 μM test compound) it was 99 ± 0.19%. In addition, in series [4], the “% degradation … with simulated intestinal fluid” value is on record as 00%. Further, in series [5], the “% degradation … with human plasma” value is reported as 00%. The “% degradation … with DPP-IV enzyme” value in series [6] was 00%.
As to `CCc1cc(OC)ccc1-c1ccc(CC(NC(=O)[C@H](CC(=O)O)NC(=O)[C@H](CO)NC(=O)[C@@H](NC(=O)C(C)(Cc2ccccc2F)NC(=O)[C@@H](NC(=O)CNC(=O)[C@H](CC(C(F)(F)F)C(F)(F)F)NC(=O)C(C)(C)NC(=O)[C@H](Cc2c[nH]cn2)NC(C)=O)[C@@H](C)O)[C@@H](C)O)C(=O)NC(CCCc2ccccc2F)C(N)=O)cc1` (some centres unmarked) [compound 212] (Ac-H[Aib][Leu(5,5,5,5',5',5'-F6)]GT[ξαMePhe(2-F)]TSD[ξBip(2'-Et-4'-OMe)][ξbishPhe(2-F)]-NH2), the “% degradation … with liver microsomes” value in series [1] was determined as 100%. Further, the half-life at 2 μM in series [1], in series [2] and in series [4] was 0.5 h throughout. The “% degradation … with simulated gastric fluid” value in series [2] is 100%. Further, the “% degradation … with simulated intestinal fluid” value in series [4] is recorded as 100%. The “half-life (t1/2) when incubated with human plasma” value in series [5] is “(9) h”. Further, the “% degradation … with human plasma” value in series [5] is on record as 80%. The “Human Glucagon receptor antagonistic activity shown as inhibition of cAMP production of Glucagon peptide” value amounted to 10 ± 0.12 pmol/ml/μg prt in series [7] (1 nM test compound); 8 ± 0.02 pmol/ml/μg prt in series [7] (10 nM test compound); 6 ± 0.04 pmol/ml/μg prt in series [7] (100 nM test compound); 4 ± 0.05 pmol/ml/μg prt in series [7] (1 μM test compound); 1 ± 0.02 pmol/ml/μg prt in series [7] (10 μM test compound). The “% degradation … with DPP-IV enzyme” value in series [6] is recorded as 77%.
